From article PMC5735979, “Total Coumarins from Hydrangea paniculata Show Renal Protective Effects in Lipopolysaccharide-Induced Acute Kidney Injury via Anti-inflammatory and Antioxidant Activities” (Frontiers in Pharmacology, 2017) come the findings set out here.

What all share (assay type): in vivo, C57BL/6 mice
Data set [1] deals with macrophages and neutrophils in kidneys. Briefly: Flow cytometric determination of kidney leukocytes. The settings on record: LPS-induced AKI mice, flow cytometry, N = 8. Here is the method:
To determine the effect of HP on leukocyte populations in septic kidneys, kidney single-cell suspensions were prepared and analyzed. Briefly, the single-cell suspensions were first incubated with anti-mouse CD45-APC-Cy7 antibody (eBioscience, USA) for 30 min on ice. After washing, the cells were stained for 15 min on ice with fluorochrome-labeled monoclonal antibodies against anti-mouse Ly6G-PE, CD11c-FITC, or F4/80-APC (eBioscience, USA) for detection of neutrophils or macrophages. Six-color fluorescence flow cytometric analyses were performed (FACS Verse, BD, USA), and the data were analyzed with the FlowJo program (Tree Star, Inc., Ashland, CA, USA).
In general terms: A flow cytometer gives signals particle by particle.

For data set [2], the system named is peripheral blood leukocytes. The data set is described as follows: Peripheral blood leukocyte counts after LPS injection. As to conditions: LPS i.p. injection. Here is the method: To understand the effect of HP on peripheral leukocytes in LPS-induced septic mice, peripheral […] was collected in heparin pretreated tubes by retro-orbital bleeding at 4, 8, 12, 24, and 48 h post-LPS injection, and the number of monocytes, lymphocytes, and neutrophils in the […] at different time points was examined by an Automatic Hematology Analyzer (Celltac E MEK-7222, Nihon Kohden, Japan). The detailed experimental procedure is shown in Figure 1C, which is similar to that used to analyze the effect of HP treatment on LPS-induced AKI.

Data set [3] deals with caspase 3, 7, 8, 9 in kidney tissue. Briefly: Tubular cell apoptosis and caspases in LPS-challenged kidneys (IHC, RT-qPCR, western blot). The settings on record: MMF 10 mg/kg; magnitude less than HP at 40 mg/kg. How it is done: LPS from Escherichia coli 0111:B4 was purchased from Sigma-Aldrich (St. Louis, MO, USA), and freshly dissolved in sterile 0.9% NaCl solution buffer before i.p. injection. For the standard treatment experiment, low dosage of LPS was used for induction of kidney injury. Inbred, 16–18 g, 4–6-week-old, male C57BL/6 mice were purchased from the SPF Biotechnology Co. Ltd. (Beijing, China). The sham group received 10 mL/kg saline by oral gavagedaily during the experiment, and at day 3 received a saline sham injection (i.p.). The LPS model group was exposed to the same procedure as the sham group, except receiving an LPS (20 mg/kg) injection (i.p.) at day 3, instead of saline. […]
For cleaved caspase 3 immunohistochemical analysis, the endogenous peroxidase activity in each section was quenched with 3% H2O2. […] Labelling was detected with a biotin-conjugated goat anti-rabbit IgG and avidin-biotin peroxidase complex. Cleaved caspase-3-positive cells in cortexes were scored in 30 random × 400 high-power fields (HPFs) with a ZEISS Observer A1 microscope (ZEISS, Germany).
The mRNA levels of selected important chemokines and cytokines in the kidneys, such as TNF-α, IL-1β, IL-6, intercellular adhesion molecule 1 (ICAM-1), vascular cell adhesion molecule 1 (VCAM-1), and MCP-1, as well as caspase family members, such as caspase 3, caspase 7, caspase 8, and caspase 9, were quantified by RT-qPCR. […]
(In general: Quantitative PCR measures a nucleic acid by following its amplification.)

Data set [4] can be described thus: Pharmacokinetics study after single oral dose of HP. The settings on record: for Blood drug concentration: 12 h after single oral dose of 50 mg/kg HP; for Blood drug concentration / concentration at 0.08 h / concentration at 0.25 h / concentration at 0.5 h / concentration at 1 h / concentration at 1.5 h / concentration at 2 h / concentration at 3 h / concentration at 4 h / concentration at 8 h / half-life / AUC(0-inf) / AUC(0-t) / Cmax / Tmax / MRT last / MRT inf: mice, n = 5; for Blood drug concentration / concentration at 0.08 h / concentration at 0.25 h / concentration at 0.5 h / concentration at 1 h / concentration at 1.5 h / concentration at 2 h / concentration at 3 h / concentration at 4 h / concentration at 8 h: mean ± SD; for concentration at 0.08 h / concentration at 0.25 h / concentration at 0.5 h / concentration at 1 h / concentration at 1.5 h / concentration at 2 h / concentration at 3 h / concentration at 4 h / concentration at 8 h / half-life / AUC(0-inf) / AUC(0-t) / Cmax / Tmax / MRT last / MRT inf: male, C57BL/6, mouse, plasma; for concentration at 0.08 h: 0.08 h after single oral dose of 50 mg/kg HP; for concentration at 0.08 h / concentration at 0.25 h / concentration at 0.5 h / concentration at 1 h / concentration at 1.5 h / concentration at 2 h / concentration at 3 h / concentration at 4 h / concentration at 8 h: read-out: Blood drug concentration; for concentration at 0.25 h: 0.25 h after single oral dose of 50 mg/kg HP; for concentration at 0.5 h: 0.5 h after single oral dose of 50 mg/kg HP; for concentration at 1 h: 1 h after single oral dose of 50 mg/kg HP; for concentration at 1.5 h: 1.5 h after single oral dose of 50 mg/kg HP; for concentration at 2 h: 2 h after single oral dose of 50 mg/kg HP; for concentration at 3 h: 3 h after single oral dose of 50 mg/kg HP; for concentration at 4 h: 4 h after single oral dose of 50 mg/kg HP; for concentration at 8 h: 8 h after single oral dose of 50 mg/kg HP; for half-life: elimination half-life; for half-life / AUC(0-inf) / AUC(0-t) / Cmax / Tmax / MRT last / MRT inf: single oral dose of 50 mg/kg HP; for MRT last: read-out: MRT(0−t); for MRT inf: read-out: MRT(0−∞). How it is done:
All of the animals were fasted for 12 h before receiving HP and were then allowed to eat for 4 h after administration. The dosing solutions used for the animal studies were prepared by dissolving the required amounts of HP in distilled water. […] The plasma was separated and stored at 2–8°C until analysis. […] Louis, MO, USA) and then mixed with 180 μL of acetonitrile (Merck, Darmstadt, Germany) to precipitate protein. After centrifugation, aliquots (10 μL each) of the supernatant were used for analysis. […] The mobile phase consisted of solvent A [0.1% formic acid (Dikma Technologies, Inc., CA, USA) in water] and solvent B [0.1% formic acid in methanol (Merck)]. The analytes were eluted at a flow rate of 0.2 mL/min, with the following gradient elution: from 0 to 0.6 min, 20% B; linear increase to 95% B in 0.2 min; 95% B for 4 min, decrease to 20% B in 0.2 min; and stabilization at initial conditions for 6 min. The mass spectrometer was set for multiple reaction monitoring and was operated in a positive-ion mode with an electrospray ionization source. Nitrogen was used as the curtain gas and the collision gas. The ion-spray voltage was set at 5,500 V, and the gas temperature at 500°C.

For `COc1c(C)c2c(c(O)c1C/C=C(\C)CCC(=O)OCCN1CCOCC1)C(=O)OC2` [MMF, Mycophenolate mofetil], the “infiltration of CD45+ F4/80+ CD11c+ macrophages and CD45+Ly6G+ neutrophils into kidneys” value in data set [1] is on record as “produced similar inhibitory results”. For the same compound, the “peripheral blood monocytes at 48 h after LPS” value in data set [2] (HP 40 mg/kg, MMF 10 mg/kg, N = 8) is “significantly reduced peripheral blood monocytes”. The “peripheral blood counts within the first 24 h after LPS” value in data set [2] (data not shown) was “did not change the peripheral blood counts”. In addition, in data set [3], the “tubular apoptosis in LPS-induced AKI” value is on record as “ameliorated tubular apoptosis”.

Turning to `O=c1ccc2cc(O)c(O)cc2o1` [Esculetin, esculetin], in data set [4], the Blood drug concentration result was “Not detectable”, the concentration at 0.08 h stood at 980 ± 800 nM, the concentration at 0.25 h was determined as 2980 ± 1240 nM and the concentration at 0.5 h was 3000 ± 1050 nM. Besides, in data set [4], the concentration at 1 h is 2240 ± 400 nM, the concentration at 1.5 h amounted to 2250 ± 1590 nM, the concentration at 2 h turned out to be 650 ± 220 nM and the concentration at 3 h worked out at 680 ± 880 nM. Also, in data set [4], the concentration at 4 h was 300 ± 160 nM, the concentration at 8 h was 120 ± 10 nM, the half-life was 2.3 h and the area under the curve AUC(0-inf) is 6.66 µM·h. Besides, in data set [4], the exposure AUC(0-t) came out at 6.27 µM·h, the maximum concentration (Cmax) worked out at 3000 nM, the time of peak concentration (Tmax) is 0.5 h and the MRT last was 1.82 h. In addition, the MRT inf in data set [4] stood at 2.38 h.

For the compound `O=c1ccc2ccc(O[C@@H]3O[C@H](CO[C@@H]4OC[C@](O)(CO)[C@H]4O)[C@@H](O)[C@H](O)[C@H]3O)cc2o1` [apiosylskimmin], the “concentration of plasma apiosylskimmin” value in data set [4] (mouse, in vivo, po, 50 mg/kg) was “too low to be determined”.

For the compound `O=c1ccc2ccc(O)cc2o1` [Umbelliferone, umbelliferone], in data set [4], the Blood drug concentration entry is recorded as “Not detectable”, the concentration at 0.08 h came to 4210 ± 2210 nM, the concentration at 0.25 h was found to be 9120 ± 3280 nM and the concentration at 0.5 h amounted to 7350 ± 2040 nM. For the same compound, in data set [4], the concentration at 1 h is 3360 ± 760 nM, the concentration at 1.5 h is 2060 ± 790 nM, the concentration at 2 h was found to be 1450 ± 790 nM and the concentration at 3 h was found to be 1100 ± 1300 nM. Also, in data set [4], the concentration at 4 h worked out at 590 ± 170 nM, the concentration at 8 h was determined as 140 ± 140 nM, the half-life is 1.69 h and the total exposure AUC(0-inf) was determined as 12.2 µM·h. In addition, in data set [4], the area under the curve AUC(0-t) was 11.8 µM·h, the maximum concentration (Cmax) is 9120 nM, the time of peak concentration (Tmax) amounted to 0.25 h and the MRT last is 1.58 h. For the same compound, the MRT inf in data set [4] amounted to 1.82 h.

As usually defined, the half-life is how long it takes for the measured level to halve. A lower half-life goes with fast loss. For orientation: AUC(0-inf) means total exposure, with the tail of the curve extrapolated. As a reminder, the AUC(0-t) is the area under the concentration-time curve up to a stated or last time point. Low values mean less exposure, high ones more exposure. Broadly, the Cmax is the peak of the concentration-time curve. A word on the Tmax: it is the time at which the peak concentration occurs.
